Data: PubChem BioAssay (NCI)
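96-well plates; 48 h exposure; 5 concentrations. Endpoints by linear interpolation between flanking doses. Not reached: highest tested concentration assigned. Abbreviation: GI50, concentration required for 50% inhibition of growth. TGI marks complete inhibition of growth.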

Experiments:
Experiment in all cases: NCI tumour cell line growth inhibition, 48 h
M14 melanoma = system: M14 melanoma
SR leukemia = system: SR leukemia
SNB-19 CNS = system: SNB-19 CNS
HT29 colon = system: HT29 colon
A549 NSCLC = system: A549 NSCLC
SK-MEL-5 melanoma = system: SK-MEL-5 melanoma
K-562 leukemia = system: K-562 leukemia
SK-MEL-2 melanoma = system: SK-MEL-2 melanoma
ACHN renal = system: ACHN renal
OVCAR-4 ovarian = system: OVCAR-4 ovarian
MDA-MB-231 breast = system: MDA-MB-231 breast
T-47D breast = system: T-47D breast
NCI-H522 lung = system: NCI-H522 lung
SN12C renal = system: SN12C renal
UACC-257 melanoma = system: UACC-257 melanoma
HCT-15 colon = system: HCT-15 colon
U251 CNS = system: U251 CNS
NCI-H226 lung = system: NCI-H226 lung
NCI/ADR-RES ovarian = system: NCI/ADR-RES ovarian
CCRF-CEM leukemia = system: CCRF-CEM leukemia
HOP-92 NSCLC = system: HOP-92 NSCLC
NCI-H23 lung = system: NCI-H23 lung
KM12 colon = system: KM12 colon
LOX IMVI melanoma = system: LOX IMVI melanoma
EKVX NSCLC = system: EKVX NSCLC
SF-268 CNS = system: SF-268 CNS
CAKI-1 renal = system: CAKI-1 renal
IGROV1 ovarian = system: IGROV1 ovarian
COLO 205 colon = system: COLO 205 colon
SNB-75 CNS = system: SNB-75 CNS
PC-3 prostate = system: PC-3 prostate
DU-145 prostate = system: DU-145 prostate
HS 578T breast = system: HS 578T breast
MDA-MB-435 = system: MDA-MB-435
NCI-H460 lung = system: NCI-H460 lung
BT-549 breast = system: BT-549 breast
UACC-62 melanoma = system: UACC-62 melanoma
SK-OV-3 ovarian = system: SK-OV-3 ovarian
TK-10 renal = system: TK-10 renal
RXF 393 renal = system: RXF 393 renal
OVCAR-5 ovarian = system: OVCAR-5 ovarian
MOLT-4 leukemia = system: MOLT-4 leukemia
HL-60(TB) leukemia = system: HL-60(TB) leukemia
SF-295 CNS = system: SF-295 CNS
SK-MEL-28 melanoma = system: SK-MEL-28 melanoma
786-0 renal = system: 786-0 renal
MCF7 breast = system: MCF7 breast
HCC-2998 colon = system: HCC-2998 colon
SF-539 CNS = system: SF-539 CNS
A498 renal = system: A498 renal
OVCAR-8 ovarian = system: OVCAR-8 ovarian
HCT-116 colon = system: HCT-116 colon
MALME-3M melanoma = system: MALME-3M melanoma
UO-31 renal = system: UO-31 renal
SW-620 colon = system: SW-620 colon
HOP-62 NSCLC = system: HOP-62 NSCLC
OVCAR-3 ovarian = system: OVCAR-3 ovarian

Work on `CC(=O)N1c2ccccc2C23CCN(C)CC4C(C)OCC(C4CC2=O)C13` (centres undefined) yielded a TGI (M14 melanoma) of over 100 µM, a TGI (SR leukemia) of over 100 µM and a TGI (SNB-19 CNS) of over 100 µM. For the same molecule, the TGI (HT29 colon) was over 100 µM, the TGI (A549 NSCLC) was over 100 µM and the TGI (SK-MEL-5 melanoma) was over 100 µM. The TGI (K-562 leukemia) was over 100 µM, the TGI (SK-MEL-2 melanoma) was over 100 µM and the TGI (ACHN renal) was over 100 µM. The TGI (OVCAR-4 ovarian) was over 100 µM, the TGI (MDA-MB-231 breast) was over 100 µM and the TGI (T-47D breast) was over 100 µM. For the same molecule, the TGI (NCI-H522 lung) was over 100 µM, the TGI (SN12C renal) was over 100 µM and the TGI (UACC-257 melanoma) was over 100 µM. It also gave a TGI (HCT-15 colon) of over 100 µM, a TGI (U251 CNS) of over 100 µM and a TGI (NCI-H226 lung) of over 100 µM. For the same molecule, the TGI (NCI/ADR-RES ovarian) was over 100 µM, the TGI (CCRF-CEM leukemia) was over 100 µM and the TGI (HOP-92 NSCLC) was over 100 µM. The TGI (NCI-H23 lung) was over 100 µM, the TGI (KM12 colon) was over 100 µM and the TGI (LOX IMVI melanoma) was over 100 µM. For the same molecule, the TGI (EKVX NSCLC) was over 100 µM, the TGI (SF-268 CNS) was over 100 µM and the TGI (CAKI-1 renal) was over 100 µM. It also gave a TGI (IGROV1 ovarian) of over 100 µM, a TGI (COLO 205 colon) of over 100 µM and a TGI (SNB-75 CNS) of over 100 µM. It also gave a TGI (PC-3 prostate) of over 100 µM, a TGI (DU-145 prostate) of over 100 µM and a TGI (HS 578T breast) of over 100 µM. For the same molecule, the TGI (MDA-MB-435) was over 100 µM, the TGI (NCI-H460 lung) was over 100 µM and the TGI (BT-549 breast) was over 100 µM. It also gave a TGI (UACC-62 melanoma) of over 100 µM, a TGI (SK-OV-3 ovarian) of over 100 µM and a TGI (TK-10 renal) of over 100 µM. The TGI (RXF 393 renal) was over 100 µM, the TGI (OVCAR-5 ovarian) was over 100 µM and the TGI (MOLT-4 leukemia) was over 100 µM. It also gave a TGI (HL-60(TB) leukemia) of over 100 µM, a TGI (SF-295 CNS) of over 100 µM and a TGI (SK-MEL-28 melanoma) of over 100 µM. It also gave a TGI (786-0 renal) of over 100 µM, a TGI (MCF7 breast) of over 100 µM and a TGI (HCC-2998 colon) of over 100 µM. The TGI (SF-539 CNS) was over 100 µM, the TGI (A498 renal) was over 100 µM and the TGI (OVCAR-8 ovarian) was over 100 µM. The TGI (HCT-116 colon) was over 100 µM, the TGI (MALME-3M melanoma) was over 100 µM and the TGI (UO-31 renal) was over 100 µM. For the same molecule, the TGI (SW-620 colon) was over 100 µM.
For `CC1=C[C@H]2c3c(c(O)c(O)c4oc5c(C)cccc5c(=O)c34)[C@H](c3cc(O)c(O)c4oc5c(C)cccc5c(=O)c34)[C@H]2C(C)(C)C1`, the GI50 (M14 melanoma) was 1.52 µM, the TGI (M14 melanoma) was 5.87 µM and the GI50 (SR leukemia) was 0.72 µM. The TGI (SR leukemia) was over 100 µM, the GI50 (SNB-19 CNS) was 2.27 µM and the TGI (SNB-19 CNS) was 11.2 µM. The GI50 (HT29 colon) was 2.12 µM, the TGI (HT29 colon) was 8.92 µM and the GI50 (A549 NSCLC) was 1.04 µM. The TGI (A549 NSCLC) was 4.85 µM, the GI50 (SK-MEL-5 melanoma) was 1.43 µM and the TGI (SK-MEL-5 melanoma) was 2.78 µM. For the same molecule, the GI50 (K-562 leukemia) was 1.67 µM, the TGI (K-562 leukemia) was over 100 µM and the GI50 (SK-MEL-2 melanoma) was 2.05 µM. For the same molecule, the TGI (SK-MEL-2 melanoma) was 5.1 µM, the GI50 (ACHN renal) was 2.31 µM and the TGI (ACHN renal) was 10.7 µM. It also gave a GI50 (OVCAR-4 ovarian) of 1.51 µM, a TGI (OVCAR-4 ovarian) of 14.7 µM and a GI50 (MDA-MB-231 breast) of 2.88 µM. For the same molecule, the TGI (MDA-MB-231 breast) was 14.6 µM, the GI50 (T-47D breast) was 2.51 µM and the TGI (T-47D breast) was 14.1 µM. It also gave a GI50 (NCI-H522 lung) of 1.97 µM, a TGI (NCI-H522 lung) of 4.29 µM and a GI50 (SN12C renal) of 1.69 µM. For the same molecule, the TGI (SN12C renal) was 6.7 µM, the GI50 (UACC-257 melanoma) was 2.54 µM and the TGI (UACC-257 melanoma) was 8.34 µM. It also gave a GI50 (HCT-15 colon) of 1.29 µM, a TGI (HCT-15 colon) of 10.9 µM and a GI50 (U251 CNS) of 1.23 µM. The TGI (U251 CNS) was 7.09 µM, the GI50 (NCI-H226 lung) was 2.21 µM and the TGI (NCI-H226 lung) was 5.99 µM. It also gave a GI50 (NCI/ADR-RES ovarian) of 2.44 µM, a TGI (NCI/ADR-RES ovarian) of 7.15 µM and a GI50 (CCRF-CEM leukemia) of 0.65 µM. The TGI (CCRF-CEM leukemia) was 10.4 µM, the GI50 (HOP-92 NSCLC) was 2.39 µM and the TGI (HOP-92 NSCLC) was 6.69 µM. For the same molecule, the GI50 (NCI-H23 lung) was 1.24 µM, the TGI (NCI-H23 lung) was 3.42 µM and the GI50 (KM12 colon) was 2.56 µM. It also gave a TGI (KM12 colon) of 8.33 µM, a GI50 (LOX IMVI melanoma) of 0.966 µM and a TGI (LOX IMVI melanoma) of 2.22 µM. It also gave a GI50 (EKVX NSCLC) of 2.34 µM, a TGI (EKVX NSCLC) of 11 µM and a GI50 (SF-268 CNS) of 1.74 µM. It also gave a TGI (SF-268 CNS) of 11.7 µM, a GI50 (CAKI-1 renal) of 1.5 µM and a TGI (CAKI-1 renal) of 9.08 µM. For the same molecule, the GI50 (IGROV1 ovarian) was 1.39 µM, the TGI (IGROV1 ovarian) was 5.69 µM and the GI50 (COLO 205 colon) was 2.41 µM. The TGI (COLO 205 colon) was 6.8 µM, the GI50 (SNB-75 CNS) was 1.4 µM and the TGI (SNB-75 CNS) was 6.77 µM. For the same molecule, the GI50 (PC-3 prostate) was 1.51 µM, the TGI (PC-3 prostate) was 10.2 µM and the GI50 (DU-145 prostate) was 3.13 µM. It also gave a TGI (DU-145 prostate) of 14.9 µM, a GI50 (HS 578T breast) of 1.93 µM and a TGI (HS 578T breast) of 9.19 µM. The GI50 (HOP-62 NSCLC) was 1.15 µM, the TGI (HOP-62 NSCLC) was 3.44 µM and the GI50 (MDA-MB-435) was 1.63 µM. The TGI (MDA-MB-435) was 3.87 µM, the GI50 (NCI-H460 lung) was 0.825 µM and the TGI (NCI-H460 lung) was 3.02 µM. The GI50 (BT-549 breast) was 1.9 µM, the TGI (BT-549 breast) was 5.04 µM and the GI50 (UACC-62 melanoma) was 1.6 µM. For the same molecule, the TGI (UACC-62 melanoma) was 3.27 µM, the GI50 (SK-OV-3 ovarian) was 2.46 µM and the TGI (SK-OV-3 ovarian) was 9.96 µM. It also gave a GI50 (TK-10 renal) of 2.51 µM, a TGI (TK-10 renal) of 11.7 µM and a GI50 (RXF 393 renal) of 1.22 µM. For the same molecule, the TGI (RXF 393 renal) was 3.26 µM, the GI50 (OVCAR-5 ovarian) was 2.65 µM and the TGI (OVCAR-5 ovarian) was 10.6 µM. The GI50 (MOLT-4 leukemia) was 1.06 µM, the TGI (MOLT-4 leukemia) was 31 µM and the GI50 (HL-60(TB) leukemia) was 3 µM. For the same molecule, the TGI (HL-60(TB) leukemia) was 9.23 µM, the GI50 (SF-295 CNS) was 1 µM and the TGI (SF-295 CNS) was 2.84 µM. It also gave a GI50 (SK-MEL-28 melanoma) of 1.6 µM, a TGI (SK-MEL-28 melanoma) of 4.18 µM and a GI50 (786-0 renal) of 2.85 µM. It also gave a TGI (786-0 renal) of 9.29 µM, a GI50 (MCF7 breast) of 2 µM and a TGI (MCF7 breast) of 6.3 µM. For the same molecule, the GI50 (OVCAR-3 ovarian) was 1.52 µM, the TGI (OVCAR-3 ovarian) was 9.34 µM and the GI50 (HCC-2998 colon) was 1.45 µM. For the same molecule, the TGI (HCC-2998 colon) was 3.47 µM, the GI50 (SF-539 CNS) was 1.67 µM and the TGI (SF-539 CNS) was 3.65 µM. It also gave a GI50 (A498 renal) of 1.85 µM, a TGI (A498 renal) of 5.35 µM and a GI50 (OVCAR-8 ovarian) of 1.7 µM. The TGI (OVCAR-8 ovarian) was 17.4 µM, the GI50 (HCT-116 colon) was 0.899 µM and the TGI (HCT-116 colon) was 2.69 µM. It also gave a GI50 (MALME-3M melanoma) of 2.43 µM, a TGI (MALME-3M melanoma) of 10.7 µM and a GI50 (UO-31 renal) of 1.23 µM. For the same molecule, the TGI (UO-31 renal) was 2.78 µM, the GI50 (SW-620 colon) was 1.93 µM and the TGI (SW-620 colon) was 10 µM.
